Measured values reported in patent publication US4424225A, “Thienobenzodiazepinones, pharmaceutical compositions thereof and method of use thereof” (Dr. Karl Thomae GmbH, priority 1982, dated 1984).

Tests used:
[1] = test system: oxotremorine-induced lesions in the mucous membrane of the stomach (muscarinic receptors); assay: Oxotremorine test: protection against oxotremorine-induced lesions of the gastric mucous membrane; assay type: in vivo, rat (female albino, Crl: COBS-CD (SD) BR); conditions: Rattus norvegicus, iv, 15 minutes before oxotremorine 0.62 mg/kg i.v., neostigmine 1 mg/kg oral
Method: (§1) Oxotremorine, a specific agonist for muscarinic receptors, produces lesions in the mucous membrane of the stomach in rats and increases their secretion of saliva. This test method was chosen so that any selective activity of an anti-muscarinic substance on the stomach could be identified.
Ten female albino rats (of the Crl: COBS-CD (SD) BR strain) with a body weight of from 120 to 150 gm apiece were used in each treatment group and were kept without food for 24 hours before the start of the test but given free access to drinking water. […]
(§2) Each antimuscarinic substance was administered intravenously in uniformly graduated doses 15 minutes before the oxotremorine was administered. Control groups were given corresponding quantities of the solvent and suspension agent instead of the test substance. […]
(§3) The ED50 values were determined using the method described by LITCHFIELD and WILCOXON (J. Pharmacol. Exp. Ther. 96, 99, 1949).
The effects on lesions of the mucous membrane of the stomach were evaluated as follows:
The lesions of the gastric mucous membrane were produced by intravenous injection of 0.62 mg/kg of oxotremorine 30 minutes after oral administration of 1 mg/kg of neostigmine (a cholinesterase inhibitor). […] The protective effect of the test substances was expressed as the percentage inhibition (percentage of animals without lesions). […]

[2] = target: T1, muscarinic receptors (smooth muscle of the fundus of the stomach) (Rattus norvegicus, UniProt P10980); assay: Binding to muscarinic receptors, displacement of 3H-N-methylscopolamine, smooth muscle of the fundus of the stomach; parameters: species or system rat (male Sprague-Dawley); conditions: 0.3 n molar 3H-NMS, 30° C., 45 minutes, pH 7.4, read-out: Receptor Binding Tests IC50, Smooth Muscle Fundus of Stomach
T1 construct: The smooth muscle of the fundus of the stomach was separated from the mucous membrane of the stomach; from tissue; host or cells: homogenized smooth muscle of the stomach fundus of male Sprague-Dawley rats
T1 sequence (P10980 1-466): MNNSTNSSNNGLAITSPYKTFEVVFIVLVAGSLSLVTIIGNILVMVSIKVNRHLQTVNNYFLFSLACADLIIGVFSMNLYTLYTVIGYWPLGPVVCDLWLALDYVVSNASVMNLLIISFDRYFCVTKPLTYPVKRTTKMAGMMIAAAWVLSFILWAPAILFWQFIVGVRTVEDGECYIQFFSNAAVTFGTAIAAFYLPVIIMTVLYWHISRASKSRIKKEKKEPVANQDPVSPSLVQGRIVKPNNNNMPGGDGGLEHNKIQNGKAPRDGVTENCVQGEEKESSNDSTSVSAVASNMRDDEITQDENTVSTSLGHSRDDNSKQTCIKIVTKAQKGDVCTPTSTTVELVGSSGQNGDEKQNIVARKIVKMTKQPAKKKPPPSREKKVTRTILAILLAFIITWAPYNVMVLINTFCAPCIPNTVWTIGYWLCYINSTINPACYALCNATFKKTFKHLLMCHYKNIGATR
Method: (§4) 3. STUDIES OF BINDING TO MUSCARINIC RECEPTORS: DETERMINATION OF THE IC50 VALUE
(§5) The organ donors were male Sprague-Dawley rats with a body weight of from about 180 to 220 gm each. After the heart, stomach, and cerebral cortex had been removed, the remainder of the operation was carried out in ice-cold Hepes-HCl buffer (pH 7.4; 100 m molar NaCl, 10 m molar MgCl2). The smooth muscle of the fundus of the stomach was separated from the mucous membrane of the stomach and subjected to preliminary homogenization. The whole heart was cut up with scissors. All the organs were then homogenized in a Potter apparatus.
(§6) For the binding test, the homogenized organs were diluted as follows:
Smooth muscle of the fundus of the stomach: 1:100
The homogenized organ preparations were incubated at a specific concentration of the radioligand and with a series of concentrations of the non-radioactive test substances in an Eppendorf centrifuge tube at 30° C. The duration of incubation was 45 minutes. […] After incubation had been brought to an end by centrifuging at 14000 g, the radioactivity in the pellet was determined. […] The proportion of non-specific binding was defined as the radioactivity which was bound in the presence of 1μ molar quinuclidinylbenzylate. […] The IC50 values of the non-labelled test substances were determined graphically. […]

[3] = Testing for mydriasis; conditions: rat, in vivo, iv; pupil observed for 10 minutes
Method: The effect of the test substances on the pupil size in rats was investigated as follows:
The substances were administered intravenously to groups of 10 animals in at least three uniformly graduated doses. The pupil size was then observed for 10 minutes to see if there were any changes (mydriasis or miosis). […] The percentage of test animals in which mydriasis occurred was determined. The ED50 values were again determined using the method of LITCHFIELD and WILCOXON (see above).

[4] = target: muscarinic receptors (cerebral cortex); assay: Binding to muscarinic receptors, displacement of 3H-N-methylscopolamine, cerebral cortex; parameters: species or system rat (male Sprague-Dawley); conditions: 0.3 n molar 3H-NMS, 30° C., 45 minutes, pH 7.4, read-out: Receptor Binding Tests IC50, Cortex
Method: as §4, §5, §6
The homogenized organ preparations were incubated at a specific concentration of the radioligand and with a series of concentrations of the non-radioactive test substances in an Eppendorf centrifuge tube at 30° C. The duration of incubation was 45 minutes. The substance 0.3 n molar ^3 H-N-methylscopolamine (^3 H-NMS) was used as the radioligand. After incubation had been brought to an end by centrifuging at 14000 g, the radioactivity in the pellet was determined. […] The proportion of non-specific binding was defined as the radioactivity which was bound in the presence of 1μ molar quinuclidinylbenzylate. […] The IC50 values of the non-labelled test substances were determined graphically. […]

[5] = Oxotremorine test: inhibition of oxotremorine-induced secretion of saliva; parameters: species or system rat (female albino, Crl: COBS-CD (SD) BR); conditions: rat, in vivo, iv, 15 minutes before oxotremorine 0.083 mg/kg i.v.; read-out: Oxotremorine Test, Inhibition of Salivation ED50
Method: as §1
Ten female albino rats (of the Crl: COBS-CD (SD) BR strain) with a body weight of from 120 to 150 gm apiece were used in each treatment group and were kept without food for 24 hours before the start of the test but given free access to drinking water.
To determine, in preliminary tests, the muscarinic effect of oxotremorine on each of the symptoms studied, a dosage/activity curve was drawn up with at least three dosages for each symptom.
When the antimuscarinic substances were tested, the dosage of oxotremorine which triggered the symptom in question in 90 to 100% of the animals in the preliminary tests was used.
Secretion of saliva: 0.083 mg/kg i.v.
as §2, §3

CN1CCC(CC(=O)N2c3ccccc3NC(=O)c3cscc32)CC1 [A, 4,9-Dihydro-4-[(1-methyl-4-piperidinyl)acetyl]-10H-thieno[3,4-b][1,5]benzodiazepin-10-one]
ED50 ([1]; read-out: Oxotremorine Test, Anti-ulcerative Effect ED50): 0.0078 mg/kg
ED70 ([1]; read-out: Oxotremorine Test, Anti-ulcerative Effect ED70): 0.014 mg/kg
IC50 [2]: 75 nM
ED50 at 10 min [3]: 0.03 mg/kg
IC50 [4]: 20 nM
ED50 at 0.25 h [5]: 0.0215 mg/kg
